The text below walks through data of patent US10058688B2 (Massachusetts Institute of Technology, priority 2012, dated 2018).

Data set [1] deals with OVCAR-3 ovarian tumor cell line. The conditions noted are these: cited from earlier work.
For data set [2] the following is noted: DrugBank, DB01229; cited from earlier work.
In data set [3] the test system is SKOV3 luciferase-positive cells. Nature of the data set: Treatment efficacy study. The format is in vivo, nu/nu mice. From the text: The nu/nu mice were inoculated with tumor cells on Day 0 and treatment was started on Day 14. […] The devices were sterilized with ethylene oxide prior to implantation. All animal care guidelines as listed in the animal protocol were followed. The animals were imaged 2 times a week, similar to the tumor induction study. The animals in the toxicity study were sacrificed on day 56 and their organs (kidney, liver, spleen, intestines and bone) were removed immediately upon euthanasia to be fixed in 10% formalin overnight.

Data set [4] concerns SKOV3 cells. The experiment in a line: In vitro cytotoxicity study. The class given is cell-based, human. The conditions noted are these: 0.1 μg/mL over a period of 7 days, FIG. 5. The procedure:
RPMI 1640 with 20% fetal bovine serum (FBS) was used for culturing A2780 and OVCAR3, and McCoy's 5a cell growth media with 10% FBS was used for SKOV3 propagation. The cells were seeded in 96-well plates at 10^4 cells/well. […] The percentage cell viability was calculated as a percentage of the untreated group at each time point.

In data set [5] the test system is SKOV3 cells. Conditions: for 2 hours; Royer et al.; used as positive control; cited from earlier work.
For another data set, the system named is ovarian cancer. Conditions: cited from earlier work.

Molecules are shown by their SMILES. Read-outs that look alike come from different tables or passages of the source.

Regarding `CC(=O)O[C@H]1C(=O)[C@@]2(C)[C@H]([C@H](OC(=O)c3ccccc3)[C@]3(O)C[C@H](OC(=O)[C@H](O)[C@@H](NC(=O)c4ccccc4)c4ccccc4)C(C)=C1C3(C)C)[C@]1(OC(C)=O)CO[C@@H]1C[C@@H]2O` [paclitaxel], the median survival in data set [1] (10 mg/kg dose) is on record as 60 days; in data set [1] (40 mg/kg), “about 70 days”. Further, the “log P” value in data set [2] is on record as “about 3.5”.

Turning to `N.N.[Cl][Pt][Cl]` [cisplatin], in data set [3] (IP bolus injection (10 mg/kg), 1 dose per week), the tumor size result is given as “remained relatively small”. Further, the tumor mass result in data set [3] (device or IP bolus 5 mg/kg 1x/wk from Day 14, vs untreated, FIG. 8) is given as “significant tumor mass reduction”. Further, the “killing of tumor cells at 0.1 μg/mL” value in the data set on SKOV3 cells [4] was “too low to kill tumor cells”. Also, the “critical condition to kill ovarian tumor cells (concentration)” value in the data set with SKOV3 cells [5] was 10 µg/mL. The results for the “subjects who completed all cycles of therapy” value in the data set on ovarian cancer (IP therapy) and in the data set with ovarian cancer (IV therapy) were 42% and 83%, respectively. Besides, the overall survival in the data set on ovarian cancer (IP treatment, p=0.03) was 65.6 months; in the data set on ovarian cancer (IV treatment), 49.7 months.
